From article PMC5843546 (Nature, 2018)

Columns and labels:
[1] = target: T1, DRD2-T4L(Sf9) I122^3.40A/L375^6.37A/L379^6.41A (Homo sapiens, UniProt P14416, I122A/L375A/L379A); experiment: biochemical
T1 sequence (P14416 with tags, fused parts or gaps I122A/L375A/L379A): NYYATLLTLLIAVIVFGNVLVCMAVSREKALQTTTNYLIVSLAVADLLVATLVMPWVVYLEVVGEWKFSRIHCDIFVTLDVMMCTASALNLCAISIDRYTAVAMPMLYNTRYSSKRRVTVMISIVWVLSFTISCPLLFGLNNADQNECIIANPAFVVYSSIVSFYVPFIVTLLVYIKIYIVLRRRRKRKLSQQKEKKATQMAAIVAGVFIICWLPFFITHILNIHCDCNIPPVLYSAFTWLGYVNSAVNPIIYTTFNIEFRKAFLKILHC

DRD2 wild-type = DRD2 wild-type (Homo sapiens, UniProt P14416); experiment: biochemical
DRD2 F110^3.28A = DRD2 F110^3.28A (Homo sapiens, UniProt P14416, F110A); settings: DRD2 F110^3.28A vs wild-type
DRD2 W100^EL1A = DRD2 W100^EL1A (Homo sapiens, UniProt P14416, W100A); settings: DRD2 W100^EL1A vs wild-type

| ΔpKd (mutant-WT) (DRD2 F110^3.28A) | ΔpKd (mutant-WT) (DRD2 W100^EL1A) | SMILES | Ki ([1]; Ki) [nM] | Ki ([1]; pKi) [nM] | Ki (DRD2 wild-type; Ki) [nM] | Ki (DRD2 wild-type; pKi) [nM] |
| --- | --- | --- | --- | --- | --- | --- |
|  |  | O=c1[nH]c2cccc(N3CCN(Cc4cccc(-c5ccccc5)c4)CC3)c2o1 [Bifeprunox] | 0.57 | 0.562 | 1.04 | 0.302 |
| 0.08 | −0.98 | CNc1cc(OC)c(C(=O)NC2CCN(Cc3ccccc3)C2C)cc1Cl (stereo not drawn) [Nemonapride, nemonapride] |  |  |  |  |
